Data on 1 molecule can be found in patent publication US8198273B2, “Compounds and methods for kinase modulation, and indications therefor” (Plexxikon Inc., priority 2009, dated 2012).

In data set [1] the target is c-Raf-1 (Homo sapiens, UniProt P04049). The experiment in a line: c-Raf-1 biochemical kinase inhibition (AlphaScreen, biotin-MEK1 substrate). As to conditions: 100 μM ATP. The essentials:
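Serial 1:3 dilutions of compound (0.1 mM DMSO stock, eight points) were added first, then ATP to start the reaction at 100 μM final.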
For orientation: Bead proximity is the source of the signal in Alpha formats.

Data set [2] can be described thus: Relative solubility by turbidity in aqueous buffers of varying pH. Type of data set: physicochemical. The essentials: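 Turbidity endpoint: concentration where optical density at 490, 535 and 650 nm exceeds 0.01, three-wavelength average used. Buffers at pH 1.5, 4.5, 6.8 and 7.4; DMSO serial dilutions of 25 mM stock spiked 1 μL into 99 μL buffer. Low <31.3, moderate 31.3–250, high >250 μM.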

For data set [3], the target named is CYP3A4(BFC) (Homo sapiens, UniProt P08684). The experiment in a line: CYP3A4(BFC) inhibition (fluorescent substrate). Type of data set: in vitro ADME. As to conditions: read-out: Cyp IC50 3A4(BFC). The essentials: (§1)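 Compound, from a 100 mM DMSO stock and diluted 1:1 over 10 points in co-factor mix, was incubated at 37° C with enzyme and a known substrate. Decrease in fluorescent product against concentration gave the IC50.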
CYP3A4(BFC), sequence (P08684 whole entry): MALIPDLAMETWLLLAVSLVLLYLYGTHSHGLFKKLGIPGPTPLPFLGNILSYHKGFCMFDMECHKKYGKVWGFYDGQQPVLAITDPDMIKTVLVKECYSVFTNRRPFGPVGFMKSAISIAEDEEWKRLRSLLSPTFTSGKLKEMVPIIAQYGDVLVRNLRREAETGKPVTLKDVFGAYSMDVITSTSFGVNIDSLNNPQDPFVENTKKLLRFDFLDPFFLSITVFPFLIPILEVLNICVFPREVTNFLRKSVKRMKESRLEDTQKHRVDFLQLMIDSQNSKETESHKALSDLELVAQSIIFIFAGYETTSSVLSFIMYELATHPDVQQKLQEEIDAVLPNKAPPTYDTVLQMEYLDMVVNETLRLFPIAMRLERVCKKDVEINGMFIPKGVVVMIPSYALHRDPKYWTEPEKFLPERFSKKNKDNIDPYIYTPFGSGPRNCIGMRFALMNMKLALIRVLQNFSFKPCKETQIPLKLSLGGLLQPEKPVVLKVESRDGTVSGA

Data set [4] deals with CYP3A4(BQ) (Homo sapiens, UniProt P08684). The experiment in a line: CYP3A4(BQ) inhibition (fluorescent substrate). As to conditions: read-out: Cyp IC50 3A4(BQ). Type of data set: in vitro ADME. In a few lines: as §1
CYP3A4(BQ), sequence (P08684 whole entry): as above

A value given as a limit tells only on which side of the number the result lay.

c-Raf-1, sequence (P04049 whole entry): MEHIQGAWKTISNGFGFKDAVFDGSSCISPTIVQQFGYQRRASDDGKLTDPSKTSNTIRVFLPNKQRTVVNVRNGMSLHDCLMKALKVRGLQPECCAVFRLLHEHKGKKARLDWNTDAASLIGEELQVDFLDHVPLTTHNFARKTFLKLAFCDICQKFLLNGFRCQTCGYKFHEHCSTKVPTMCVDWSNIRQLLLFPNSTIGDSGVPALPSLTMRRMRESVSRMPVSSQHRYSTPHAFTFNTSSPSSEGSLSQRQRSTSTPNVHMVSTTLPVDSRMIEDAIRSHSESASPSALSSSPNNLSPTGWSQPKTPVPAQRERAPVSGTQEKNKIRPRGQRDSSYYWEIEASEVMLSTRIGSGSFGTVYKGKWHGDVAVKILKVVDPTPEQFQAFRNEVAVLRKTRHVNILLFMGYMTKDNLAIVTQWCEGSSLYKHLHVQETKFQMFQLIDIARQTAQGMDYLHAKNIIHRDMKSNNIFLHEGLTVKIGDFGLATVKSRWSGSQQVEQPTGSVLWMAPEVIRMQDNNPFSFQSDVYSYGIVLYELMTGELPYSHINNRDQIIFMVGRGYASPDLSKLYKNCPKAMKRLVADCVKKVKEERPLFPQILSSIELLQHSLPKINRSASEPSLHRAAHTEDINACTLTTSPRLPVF

As usually defined, the IC50 is the point on the concentration scale where inhibition reaches its midpoint. As for `CCCS(=O)(=O)Nc1ccc(F)c(C(=O)c2c[nH]c3ncc(-c4ccc(N(C)C)nc4)cc23)c1F` [P-2229, Propane-1-sulfonic acid {3-[5-(6-dimethylamino-pyridin-3-yl)-1H-pyrrolo[2,3-b]pyridine-3-carbonyl]-2,4-difluoro-phenyl}-amide], the concentration for half-maximal inhibition (IC50) in data set [1] was < 0.1 µM; in data set [3], > 10 µM; in data set [4] it was > 10 µM. In data set [2] (HEPES pH 7.4), the “turbidity threshold (L, M, H) 7.4” value was “M (moderate solubility if the threshold concentration is 31.3 μM to 250 μM)”. Also, the “turbidity threshold (L, M, H) 4.5” value in data set [2] (SIF pH 4.5) is listed as “L (low solubility if the threshold concentration is <31.3 04)”. For the same molecule, in data set [2] (SIF pH 6.8), the “turbidity threshold (L, M, H) 6.8” value is recorded as “M (moderate solubility if the threshold concentration is 31.3 μM to 250 μM)”. The “turbidity threshold (L, M, H) 1.4” value in data set [2] (buffer pH 1.4 (SGF)) is listed as “M (moderate solubility if the threshold concentration is 31.3 μM to 250 μM)”.
